Test results published in PMC6950336, “Co-Occurrence of DON and Emerging Mycotoxins in Worldwide Finished Pig Feed and Their Combined Toxicity in Intestinal Cells” (Toxins, 2019).
Like-named read-outs stand apart in the source and are kept apart here.

Columns and labels:
[1] = system: IPEC-1 cells; conditions: for IC50: read-out: IC50 (dose leading to a 50% reduction in cell viability); for IC50 / IC50 (dose leading to a 50% reduction in cell viability): mean ± SEM of three biological replicates; for Toxicity to intestinal cells at high concentrations: IPEC-1, concentrations of up to 300 µM; for Individual toxicity compared with DON: IPEC-1, 48 h, dose-effect curves
[2] = system: lymphocytes and splenocytes; conditions: cited from earlier work
[3] = system: HepG2; conditions: HepG2, 2 mM; cited from earlier work
[4] = system: A549; conditions: A549, 2 mM; cited from earlier work
[5] = system: THP-1 cells; conditions: THP-1, 2 mM; cited from earlier work
[6] = system: IPEC-1 cells; experiment: cells; conditions: Sus scrofa, 48 h, read-out: IC50 (dose leading to a 50% reduction in cell viability)
[7] = system: Caco-2; conditions: cited from earlier work
[8] = system: HepG2; conditions: cited from earlier work
[9] = system: IPEC-J2; conditions: read-out: relative IC50; cited from earlier work
[10] = system: human multiple myeloma blood cells; conditions: cited from earlier work
[11] = lymphocytes and splenocytes, low doses (> 0.1µM)
[12] = ratio 3, highest concentration(s): DON 50 µM + EMO 5 µM / ENN-B 17.2 µM / BEA 2.3 µM / ENN-A1 6.5 µM, ENN-B1 6 and 18 µM

Enniatin A1
IC50 [1]: 1.6 ± 0.3 µM

CC1=C[C@H]2O[C@@H]3[C@H](O)C[C@](C)([C@@]2(CO)[C@H](O)C1=O)[C@]31CO1 [Deoxynivalenol]
Toxicity (classification from IC50 compared with DON) [1]: Highly toxic | IC50 [1]: 3.2 ± 0.7 µM | Proliferation [2, 11]: up to 200%

OCCc1c[nH]c2ccccc12 [Tryptophol]
Toxicity (classification from IC50 compared with DON) [1]: Non-toxic | Toxicity to intestinal cells at high concentrations [1]: not toxic | IC50 (dose leading to a 50% reduction in cell viability) [1]: Non-Toxic | DNA damage [3]: induced DNA damage | DNA damage [4]: induced DNA damage | DNA damage [5]: induced DNA damage

CCC(=O)CCCCC[C@@H]1NC(=O)[C@H]2CCCCN2C(=O)[C@H]([C@@H](C)CC)NC(=O)[C@H](Cc2cn(OC)c3ccccc23)NC1=O [Apicidin]
Toxicity (classification from IC50 compared with DON) [1]: Highly toxic | Toxicity of the emerging mycotoxin alone [1]: not toxic | Individual toxicity compared with DON [1]: more toxic than DON | Concentration at which toxicity was confirmed ([1]; pig): > 500 nM | Toxicity of the combination of DON and the emerging mycotoxin ([1]; ratio 2, doses lower than DON (5.6 µM) + API (0.09 µM)): lower than the toxicity of DON alone, but higher than API alone | IC50 [6]: 1.5 ± 0.5 µM

CC(C)[C@H]1C(=O)O[C@H](C(C)C)C(=O)N(C)[C@@H](C(C)C)C(=O)O[C@H](C(C)C)C(=O)N(C)[C@@H](C(C)C)C(=O)O[C@H](C(C)C)C(=O)N1C [Enniatin B]
Toxicity (classification from IC50 compared with DON) [1]: Highly toxic | Toxicity of the emerging mycotoxin alone [1]: not toxic | Individual toxicity compared with DON [1]: close to that of DON | Toxicity of the combination of DON and the emerging mycotoxin [1, 12]: lower than the toxicity of either DON alone or ENN-B alone | IC50 [6]: 4.4 ± 0.9 µM | Toxicity [7]: no toxicity at all | Toxicity [8]: no toxicity at all

COC1=C(C2=C(OC)C(=O)c3cc4oc(C)cc(=O)c4c(O)c3C2=O)C(=O)c2c(cc3oc(C)cc(=O)c3c2O)C1=O [Aurofusarin]
Toxicity (classification from IC50 compared with DON) [1]: Moderately toxic | Toxicity of the emerging mycotoxin alone [1]: minimal | Individual toxicity compared with DON [1]: less than that of DON | IC50 [1]: 19.1 ± 3.4 µM | IC50 [9]: 9.3 µM

O=C1N[C@@H](Cc2c[nH]c3ccccc23)C(=O)N2CCC[C@@H]12 [Brevianamide F]
Toxicity (classification from IC50 compared with DON) [1]: Non-toxic | Toxicity to intestinal cells at high concentrations [1]: not toxic | IC50 (dose leading to a 50% reduction in cell viability) [1]: Non-Toxic

CCCC[C@@H](C)[C@@H](OC(=O)C[C@@H](CC(=O)O)C(=O)O)[C@H](C[C@@H](C)C[C@H](O)CCCC[C@@H](O)C[C@H](O)[C@H](C)N)OC(=O)C[C@@H](CC(=O)O)C(=O)O [fumonisin B1]
Proliferation [2, 11]: up to 200%

Cc1cc(O)c2c(c1)C(=O)c1cc(O)cc(O)c1C2=O [Emodin]
Proliferation induced by the toxin alone [1]: up to 130% | Toxicity (classification from IC50 compared with DON) [1]: Moderately toxic | Individual toxicity compared with DON [1]: less than that of DON | Toxicity of the combination of DON and the emerging mycotoxin [1, 12]: less toxic than DON alone | IC50 [6]: 19 ± 0.7 µM | IC50 [9]: 13.1 µM | IC50 [10]: 38 µM

CC[C@H](C)[C@H]1C(=O)O[C@H](C(C)C)C(=O)N(C)[C@@H](C(C)C)C(=O)O[C@H](C(C)C)C(=O)N(C)[C@@H](C(C)C)C(=O)O[C@H](C(C)C)C(=O)N1C [Enniatin B1]
Toxicity (classification from IC50 compared with DON) [1]: Moderately toxic | Toxicity of the emerging mycotoxin alone [1]: minimal | Individual toxicity compared with DON [1]: less than that of DON | Toxicity of the combination of DON and the emerging mycotoxin ([1]; in mixture with DON, ratio 3, in general (exceptions reported separately)): the same as the toxicity of DON alone | Toxicity of the combination of DON and the emerging mycotoxin ([1]; ratio 2, highest concentration: DON 50 µM + ENN-B1 4.1 µM / ENN-B 3.6 µM / ENN-A1 1.7 µM): higher than the toxicity of ENN-B1 alone, but lower than the toxicity of DON alone | Toxicity of the combination of DON and the emerging mycotoxin [1, 12]: the same as the toxicity of ENN-B1 alone, but lower than the toxicity of DON alone | IC50 [6]: 13.5 ± 2.5 µM

O=C1N[C@@H](Cc2ccc(O)cc2)C(=O)N2CCC[C@@H]12 [Cyclo-(L-Pro-L-Tyr)]
Toxicity (classification from IC50 compared with DON) [1]: Non-toxic | Toxicity to intestinal cells at high concentrations [1]: not toxic | IC50 (dose leading to a 50% reduction in cell viability) [1]: Non-Toxic

CC1=C[C@H]2O[C@@H]3[C@H](O)[C@@H](O)[C@](C)([C@@]2(CO)[C@H](O)C1=O)[C@]31CO1 [nivalenol]
Proliferation [2]: up to 200%

aflatoxin B1
Proliferation [2]: up to 200%

Beauvericin
IC50 [1]: 4.3 ± 1.8 µM
